These results are taken from the METLIN SMRT retention time set (Domingo-Almenara et al. 2019).

This data set can be described thus: gradient 5% acetonitrile 3 min, to 50% in 2 min, to 85% in 15 min, held 3 min, 100 µL/min. As to conditions: column: Zorbax Extend-C18 2.1 x 50 mm; eluents: water / acetonitrile, 0.1% formic acid. The method, boiled down: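 The mobile phases were water and acetonitrile, each with 0.1% formic acid, pumped at 100 μL/min through a Zorbax Extend-C18 column (2.1 × 50 mm, 1.8 μm). Pure standards were injected as mixtures of ~100 molecules and detected by a quadrupole time-of-flight mass spectrometer in positive and negative ionization mode. Retention time came from computationally picked adduct peaks, each inspected by hand.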
Consider `COc1ccc(NC(=O)c2cnc(N3CCN(CC(=O)N4CCCC4)CC3)nc2N)cc1`, for which the RP-LC retention time amounted to 586 s.

`Cn1cc(C2=CCN(C(=O)c3cc(F)cc(F)c3)CC2)c2cccnc21` gave an RP-LC retention time of 846 s.

For `O=C(NCCCN1CCc2ccccc2C1)c1noc2c1CCCC2`, the RP-LC retention time was found to be 659 s.

For the molecule `Cc1noc(C)c1S(=O)(=O)N1CCC(c2nn(C)c(=O)n2C2CCCC2)CC1`, the RP-LC retention time was 856 s.

In turn, `Cc1ccc2nc(-c3ccccc3)c(Nc3ccc4c(c3)OCCO4)n2c1` gave an RP-LC retention time of 697 s.

Molecule `CC(C)c1cc(C(F)(F)F)nc(NNc2nc(C(C)C)cc(C(F)(F)F)n2)n1` had an RP-LC retention time of 924 s.

Molecule `O=C(NCc1csc(-c2cccs2)n1)C1CCN(S(=O)(=O)c2ccc(F)cc2)CC1` showed an RP-LC retention time of 892 s.

In turn, `Cc1cc(NC(=O)NC(=O)c2ccccc2NC(=O)C(C)N)ccc1Oc1ncc(Br)cn1` (stereo not drawn) showed an RP-LC retention time of 715 s.

`Cc1ccc(NC(=O)Cn2cnc3nc(N4CCC(C(=O)NC5CC5)CC4)sc3c2=O)c(C)c1` yielded an RP-LC retention time of 678 s.

In turn, `CCOc1ccc(-n2cc(C(=O)OCC(=O)OC(C)(C)C)c3ccccc3c2=O)cc1` displayed an RP-LC retention time of 1220 s.

`CCN(CC)S(=O)(=O)c1ccc(C)c(-c2nnc(-c3ccc(F)cc3)o2)c1` showed an RP-LC retention time of 1100 s.

As for `O=C(Cc1ccccc1)Nc1cccc(C(=O)Nc2ccccc2C(=O)O)c1`, the RP-LC retention time amounted to 830 s.

`Cc1cnc(C(=O)N2CCC(N3CC(OCC4CC4)C34CCOCC4)CC2)cn1` (stereo not drawn) showed an RP-LC retention time of 586 s.

As to `CCCN1C(=O)c2cc(S(=O)(=O)Nc3cc(F)ccc3C)ccc2Oc2cccnc21`, the RP-LC retention time was 1120 s.

Consider `CC(C)c1noc(-c2cc(=O)n(CC(=O)Nc3cccc(Cl)c3)c3ccccc23)n1`, for which the RP-LC retention time worked out at 1070 s.

For `Cc1nnc(SCCC(=O)Nc2nc(-c3ccccc3)ns2)s1`, the RP-LC retention time came out at 890 s.

Molecule `NC1=NC(=O)/C(=C/c2ccccc2OCC(=O)Nc2ccc(F)cc2)S1` gave an RP-LC retention time of 660 s.

In the case of `CC1(C)CC(=O)C2=C(C1)N(CC1CCCO1)C(=O)C2(NC(=O)c1ccc(F)cc1)C(F)(F)F` (stereo not drawn), the RP-LC retention time stood at 929 s.

For the molecule `CCOC(=O)c1ccc(Nc2c(-c3ccc(N4CCOCC4)cc3)nc3cnccn23)cc1`, the RP-LC retention time worked out at 795 s.

The molecule `O=C(C1c2ccccc2CCN1C(=O)C1CC1)N1CCN(c2ccc(F)cc2)CC1` (stereo not drawn) had an RP-LC retention time of 943 s.

For `CCCNC(=O)CCNc1c(-c2ccc(C)cc2)nc2cnccn12`, the RP-LC retention time came out at 654 s.

Molecule `CC(C)NC(=O)CCC(=O)N1CCc2c(c(C(=O)N3CCCCC3)nn2C)C1` gave an RP-LC retention time of 617 s.

Molecule `Cc1ccc(NC(=O)CSc2nccc(N3CCN(c4cc(C)ccc4C)CC3)n2)c(C)c1` yielded an RP-LC retention time of 1060 s.

Take `COc1ccc(-n2ccn3c(CCC(=O)NCCc4c[nH]c5ccccc45)nnc3c2=O)cc1`: the RP-LC retention time amounted to 704 s.

Regarding `CCC1CN1P1(=O)OCC(C)([N+](=O)[O-])CO1` (stereo not drawn), the RP-LC retention time amounted to 721 s.

The molecule `CCN1CCN(CCCNC(=O)Cn2c3ccccc3c3cnn(C)c(=O)c32)CC1` gave an RP-LC retention time of 560 s.

The molecule `CCOc1ccc(C(O)CN2CCN(c3ccccc3)CC2)cc1` (stereo not drawn) came in with an RP-LC retention time of 653 s.

The molecule `Cc1ccccc1CSc1ncnc2nc[nH]c12` showed an RP-LC retention time of 744 s.

As for `COc1ccc(C(=O)N2CCN3CCS(=O)(=O)N(C4CC4)C(=O)C3C2)c(OC)c1` (stereo not drawn), the RP-LC retention time worked out at 711 s.

Regarding `CCCN(C(=O)c1c(C)oc2nc(C)nc(N3CCOCC3)c12)c1ccc(OCC)cc1`, the RP-LC retention time is 902 s.

In the case of `CCN1CCN(C(=O)c2c(OCC3CC3)cc(=O)n3c2CCCCC3)CC1`, the RP-LC retention time came out at 569 s.

In turn, `O=C(NCc1cccs1)C1CCN(C(=O)c2ncn3c2COC(c2ccc(F)cc2)C3)CC1` (stereo not drawn) yielded an RP-LC retention time of 736 s.

As for `Cc1ccc(-c2noc(C(=O)N3CCCC3)n2)cc1S(=O)(=O)N1CCN(c2ncccn2)CC1`, the RP-LC retention time was 959 s.

In turn, `CN(CCc1noc(COc2ccc(Cl)cc2)n1)C(=O)NCCc1ccccc1` yielded an RP-LC retention time of 965 s.

Molecule `COc1ccc2[nH]cc(CCn3ccc4c(nnc5ccnn54)c3=O)c2c1` showed an RP-LC retention time of 686 s.

For `O=C(Cc1csc(-c2ccccc2F)n1)NCCc1c[nH]c2ccccc12`, the RP-LC retention time was determined as 904 s.

As to `O=C(Nc1ccc(OC(F)(F)F)cc1)C(=O)Nc1cccc([N+](=O)[O-])c1`, the RP-LC retention time was determined as 1030 s.

For the molecule `CCOC(=O)c1ccc(NC(=O)CN2CCN(Cc3ccccc3)C(=O)C2=O)cc1`, the RP-LC retention time is 766 s.

The molecule `CCOC(=O)c1ccc(NC(=O)c2ccc3c(c2)N(C)C2CCCCN2C3=O)cc1` (stereo not drawn) registered an RP-LC retention time of 896 s.

Molecule `Cc1ccc(N2CCC(NC(=O)Nc3cc(Cl)ccc3C)C2=O)cc1` (stereo not drawn) returned an RP-LC retention time of 956 s.

For `COc1ccc(NC(=O)N2C[C@H]3C[C@H](C2)[C@H]2CCCC(=O)N2C3)cc1OC`, the RP-LC retention time came to 612 s.

`Cc1cc(C)cc(NC(=O)Cn2ncc3c(c2=O)N(C2CC2)C(=O)CS3)c1` returned an RP-LC retention time of 797 s.

With `Cc1ccc(-c2nc(C)c3c(n2)N(Cc2ccccn2)C(=O)CC3)cc1`, the RP-LC retention time stood at 771 s.

Turning to `CC(C)n1nc(CNC(=O)c2cccs2)c2ccccc21`, the RP-LC retention time was 845 s.

With `CCN(CC)C(=O)c1ccc2c(c1)N(CC(=O)NC1CCCCCCC1)C(=O)CS2`, the RP-LC retention time is 879 s.

`COc1cc(Cl)c(NC(=O)C2CCCN(c3nc4ccccc4nc3OC)C2)c(OC)c1` (stereo not drawn) showed an RP-LC retention time of 1250 s.

`CCOC(=O)C1=C(CN2CC=C(c3ccccc3)CC2)NC(=O)NC1c1cccc(OC)c1OC` (stereo not drawn) registered an RP-LC retention time of 704 s.

The molecule `CCOc1ccc(NC(=O)N2CCN(c3cc(C)nc(N4CCCC4)n3)CC2)cc1` had an RP-LC retention time of 681 s.

For the molecule `COc1nn(C)cc1C(=O)N1CCC(C(=O)Nc2ccc(-n3cnnn3)cc2)CC1`, the RP-LC retention time was 600 s.

`CCC(C(=O)NCCc1c[nH]c2ccc(C)cc12)n1c2ccccc2c2cnn(C)c(=O)c21` (stereo not drawn): the RP-LC retention time worked out at 957 s.

In turn, `CN(C)CCNC(=O)c1cccc2[nH]c(-c3ccncc3)nc12` showed an RP-LC retention time of 556 s.

Turning to `C=CCNC(=O)CCc1c(-c2ccc(Br)cc2)nc2ccccn12`, the RP-LC retention time came out at 622 s.

`Cn1nc(C(=O)N2CCCN(c3cc(-c4ccc(Br)cc4)[nH]n3)CC2)c2ccccc21` returned an RP-LC retention time of 807 s.

`O=C(CCn1cnc2cc(-c3noc(-c4ccc(Cl)cc4)n3)ccc21)N1CCOCC1`: the RP-LC retention time was 754 s.

The molecule `O=C(Nc1ccc(OC(F)(F)F)cc1)C1CCN(S(=O)(=O)c2ccc3[nH]c(=O)ccc3c2)CC1` registered an RP-LC retention time of 831 s.

As to `CN1CCN(C(CNC(=O)c2ccc3nsnc3c2)c2ccc(F)cc2)CC1` (stereo not drawn), the RP-LC retention time turned out to be 567 s.

`CCCC(C)C(=O)NC1CCN(C2=NS(=O)(=O)C(c3ccc(F)cc3)=C2C)CC1` (stereo not drawn) yielded an RP-LC retention time of 856 s.

`O=C(NCC1CCN(c2ncccn2)CC1)C(=O)Nc1ccon1`: the RP-LC retention time came out at 614 s.

Molecule `Cn1c(=O)c2c(ncn2CC(=O)OCc2cc(-c3cccs3)on2)n(C)c1=O` had an RP-LC retention time of 697 s.

On to `CCn1cc(C(=O)N2CCc3ccccc32)c2nn(-c3ccccc3)c(=O)c-2c1`, for which the RP-LC retention time came to 803 s.

Consider `O=C(Nc1cccc(Cl)c1)c1nnc(COCC(=O)N2CCN(c3ccccn3)CC2)s1`, for which the RP-LC retention time came to 657 s.

Molecule `Cc1ccc(-c2noc(Cc3nc(-c4ccccc4)cs3)n2)cc1` registered an RP-LC retention time of 1260 s.

In turn, `Cn1ncc2c3ccccc3n(CC(=O)NCCN3CCCCC3)c2c1=O` gave an RP-LC retention time of 595 s.

As to `COc1ccc(C(=O)NC2(c3nc(C)no3)CCCCC2)cc1F`, the RP-LC retention time came out at 854 s.

Molecule `CCc1ccc(NC(=O)CSc2cc(N3CCCCC3)ncn2)cc1` showed an RP-LC retention time of 974 s.

On to `CCN(CC)S(=O)(=O)c1cc(-c2nnc(-c3ccccc3OC)o2)ccc1Cl`, for which the RP-LC retention time is 1090 s.

In turn, `COCCNC(=O)C(=O)Nc1ccc(Br)cc1F` came in with an RP-LC retention time of 839 s.

As for `Cc1noc(C)c1-c1ccc(S(=O)(=O)N2CCOCC2)cc1`, the RP-LC retention time was found to be 807 s.

As to `COc1ccc(N2CCn3c2nn(CC(=O)NCc2ccco2)c(=O)c3=O)cc1`, the RP-LC retention time came to 634 s.

For `Cc1nnc([C@@H]2CC(F)(F)CN2C(=O)c2ccc3ncccc3c2)o1`, the RP-LC retention time is 607 s.

Take `CN(C)c1cccc(-c2nc(-c3cn(Cc4ccc(F)cc4)nn3)no2)c1`: the RP-LC retention time came out at 1030 s.

For `Cc1ccc(S(=O)(=O)Nc2cccc(-c3cn4ccccc4n3)c2)cc1C`, the RP-LC retention time stood at 648 s.

Consider `CCOC(=O)c1c(C)[nH]c(C(=O)N2CCC(CC(=O)NCc3ccc(C)cc3)CC2)c1C`, for which the RP-LC retention time amounted to 822 s.

On to `c1ccc(-n2nnnc2-c2cccc3ccccc23)cc1`, for which the RP-LC retention time was found to be 1010 s.

On to `CCC(=O)Nc1ccc(CCc2nc3ccc(C(=O)NC4CC4)cc3[nH]2)cc1`, for which the RP-LC retention time amounted to 582 s.

With `CCC(NC(=O)C1CCCN(c2cnc3nccnc3c2)C1)c1ccc(OC)cc1` (stereo not drawn), the RP-LC retention time came to 735 s.

Regarding `CC(C)c1nnc(-c2cccnc2N2CCN(C(=O)c3ccc4[nH]ccc4c3)CC2)o1`, the RP-LC retention time stood at 749 s.

Molecule `NC(=O)C1CCN(C(=O)c2snc(-c3ccccn3)c2N)CC1` came in with an RP-LC retention time of 645 s.
